Measured values published in EP0123485A1, “Colon-specific prodrug, the preparation and uses thereof” (priority 1983, dated 1984).

What was measured:
[1] = Recovery of steroid glycoside and free steroid from intestinal contents and tissues after intragastric administration; type: in vivo, Sprague-Dawley rats; conditions: rat, in vivo, po
Method: Male, Sprague-Dawley rats (ca 250 g) were maintained on laboratory rat chow and water ad lib. These rats were fasted overnight (16 hr.) prior to administration of glucoside or free steroid. Water bottles were removed from the cages at least 30 min prior to drug administration. Prednisolone glucoside, 2, (7.5 mg) or dexamethasone glucoside, 1, (7.5 mg) was administered by gastric intubation as a solution (0.5 mL) of water/95% ethanol (3:1). Prednisolone, 4, (5.25 mg) or dexamethasone, 3, (5.1 mg) was administered as a solution (0.5 mL) of water/95% ethanol (1:1). After the appropriate interval of time -3, 4, 5 or 6 hr.- the animals were sacrificed by carbon dioxide anesthesia followed by thoractomy. The small intestine and cecum were removed and cut into segments. Contents were separated from the tissues by rinsing the segments with cold, 0.9% saline (5.0 mL). The contents were immediately diluted to 30 mL with methanol. The tissues were suspended in 0.01 M KH2P04 (5.0 mL). Then an internal standard, either prednisolone, 4, or dexamethasone, 3, depending on the experimental steroid, was added to all the samples. Both the contents and tissues were then homogenized with a Polytron Homogenizer (Brinkman Inst. Co.) at med. speed for 1-2 min. The contents were then diluted to 40 mL total volume with methanol. The tissues were diluted to 25 mL total volume with methanol. All the samples were centrifuged (5,000 g, 15 min) and then the supernatant solutions were passed through membrane filters (0.45 micrometers, Versapor 800). The samples (1.4 mL) were then diluted with 0.01 M KH2PO4 (0.6 mL) and 20 microliters of the resulting solution injected directly onto the HPLC column for analysis.

[2] = KM(app) and Vmax determinations (Eadie-Hofstee plots); type: in vitro ADME, rat; conditions: 15 min, 37 C
Method: KM(app) and VMax Determinations. The KM(app)-Vmax for the hydrolysis of p-NP-glc and p-NP-gal were determined using pooled cecal homogenates (200 mL) as described above. A range of substrate (56-1000 micromolar; final volume 2.25 mL) concentrations, spanning their apparent KM, was used for each reaction. The amount of cecal homogenate used was 0.04 mL. Velocities were obtained, in duplicate, at 37 °C in a shaking water bath and the reaction stopped by addition of 0.2 N NaOH (0.25 mL) after 15 min. Release of p-nitrophenol was measured spectrophotometrically at 403 nm. Eadie-Hofstee plots were used to determine the KM(app) (micromolar) and Vmax (micromolar/min/g) of both reactions. The wet weight (g), measured immediately after removal and pooling, was used throughout.
Again, cecal contents from four rats were pooled, weighed, diluted (100 mL, 0.01 M phosphate buffer, pH 7.0) and homogenized. A range of substrate concentrations (0.5-48 micromolar, final volume 2.5 mL) spanning the apparent KM, was used for each reaction. The amount of cecal homogenate used was 0.8 mL. Reactions were run, in duplicate, at 37°C in a shaking water bath. After 15 min, the reactions were stopped by removing aliquots (0.3 mL) and quenching them with MeOH (4.7 mL). […] Again, Eadie-Hofstee plots were used to determine the KM(app) and VMax.

[3] = Rate of hydrolysis in homogenized cecal contents; conditions: for hydrolysis by cecal contents, comparison in words: cecal content homogenates; for Sp. act. / Tot. act.: cecal contents, 37 C
Description: (§1) (The entire small intestine was divided into two, equal length segments to give PSI and DSI.) Gastrointestinal contents were obtained from male, Sprague-Dawley rats (300-400 g) which had been maintained on a stock diet (Purina rat chow) and water ad libitum. The intestinal contents of each section were pooled from four animals for each assay. […] Following removal, the contents were quickly weighed, then diluted to 100 milliliters (stomach, PSI, and DSI) or 200 milliliters (cecum) with cold 0.01 M phosphate buffer, pH 7.0. […] Homogenates were then stored on ice (ca 30 min). […] The reaction was run at 37 °C in a shaking water bath. The reaction was stopped after 10, 20, or 30 min by addition of 0.2 N NaOH (0.25 milliliters).
(§2) Stomach and PSI contents were diluted to 50 mL with 0.01 M phosphate buffer, pH 7.0, DSI contents to 25 mL, and cecal contents to 200 mL, prior to homogenization. The homogenates (2.1 mL of stomach, PSI, and DSI and 1.7 mL of cecum) were added to the appropriate substrate solution (0.01 M phosphate buffer, pH 7.0) to give 1.0 mM substrate in a total volume of 2.5 mL. At various times up to 30 min, aliquots (0.3 mL) were removed and quenched with MeOH (4.7 mL). After centrifugation (5,000 g, 10 min), the samples were diluted (1:1) with 0.01 M KH2PO4 and 20 microliters of the resulting solution was injected directly onto the HPLC column for analysis.

[4] = Rate of hydrolysis in homogenized stomach contents; conditions: 37 C
[5] = Rate of hydrolysis in homogenized distal small intestine contents; conditions: for Sp. act. / Tot. act.: DSI contents, 37 C
Description: as §1, §2

[6] = Rate of hydrolysis in homogenized proximal small intestine contents; conditions: PSI contents, 37 C
physchem = type: physicochemical; conditions: n-octanol / 0.01 M phosphate buffer pH 7.0, 37 C, agitated 30 min
Method: The partitioning of prodrugs and free steroids between n-octanol and an aqueous phase (0.01 phosphate buffer, pH 7.0) were determined at 37 °C. Both octanol and buffer were saturated with the relevant aqueous or organic phase before use. […] The intitial concentration of steroid was 10 mM dissolved in the organic phase. The amount of glycoside and free steroid in the aqueous phase at equilibrium was measured spectrophotometrically at 239 nm for the dexamethasone and fludrocortisone compounds and 242 nm for the prednisolone and hydrocortisone compounds. The concentration of glycoside or free steroid in the octanol phase was determined by difference.

[7] = prodrug 0.5-48 micromolar, 0.8 mL cecal homogenate, release of free steroid by HPLC, listed as glucoside 5
[8] = 1.0 mM prodrug, release of free steroid by HPLC
[9] = prodrug 0.5-48 micromolar, 0.8 mL cecal homogenate, release of free steroid by HPLC, listed as glucoside 7
[10] = prodrug 0.5-48 micromolar, 0.8 mL cecal homogenate, release of free steroid by HPLC, listed as galactoside 9
[11] = prodrug 0.5-48 micromolar, 0.8 mL cecal homogenate, release of free steroid by HPLC, listed as galactoside 10
[12] = prodrug 0.5-48 micromolar, 0.8 mL cecal homogenate, release of free steroid by HPLC, listed as galactoside 11
[13] = prodrug 0.5-48 micromolar, 0.8 mL cecal homogenate, release of free steroid by HPLC, listed as galactoside 12
[14] = pH 7.0, 1.0 mM p-nitrophenyl substrate, p-nitrophenol at 403 nm
[15] = pH ca 5.0, 1.0 mM p-nitrophenyl substrate, p-nitrophenol at 403 nm
[16] = p-nitrophenyl substrate 56-1000 micromolar, 0.04 mL cecal homogenate, p-nitrophenol at 403 nm

Compound	Sp. act. [3, 8] [nmoles/min/g wet weight]	Tot. act. [3, 8] [µmol/min]	Sp. act. [4, 8] [nmoles/min/g wet weight]	Tot. act. [4, 8] [µmol/min]	Sp. act. [5, 8] [nmoles/min/g wet weight]	Tot. act. [5, 8] [µmol/min]	Sp. act. [6, 8] [nmoles/min/g wet weight]	Tot. act. [6, 8] [µmol/min]	further results
C[C@@H]1C[C@H]2[C@@H]3CCC4=CC(=O)C=C[C@]4(C)[C@@]3(F)[C@@H](O)C[C@]2(C)[C@@]1(O)C(=O)CO [Compound 3, 9 alpha-Fluoro-11 beta, 17 alpha-21 trihydroxy-16 alpha-methyl-3, 20-dioxopregna-1,4-diene, reference compound]	–	–	–	–	–	–	–	–	recovery at 3 h [1]: 3.9%; free steroid recovered in the cecum, as equivalent of the administered dose ([1]; 5 h): 44%
CC12CCC(=O)C=C1CCC1C2C(O)CC2(C)C1CCC2(O)C(=O)COC1OC(CO)C(O)C(O)C1O [Compound 5, 11 beta, 17 alpha-Dihydroxy-3, 20-dioxopregna-4-en-21-yl beta-D-glucopyranoside]	30.5	0.76	5.5	0.09	39.2	0.70	15.9	0.10	Km [2, 7]: 5.7 µM; Vmax [2, 7]: 2.6 µM/min/g; hydrolysis by cecal contents, comparison in words [3]: hydrolyzed more slowly than the other glucoside prodrugs
C[C@]12CCC(=O)C=C1CC[C@@H]1[C@@H]2[C@@H](O)C[C@@]2(C)[C@H]1CC[C@]2(O)C(=O)CO [Compound 6, 11 beta, 17 alpha-21-Trihydroxy-3, 20-dioxopregna-4-ene]	–	–	–	–	–	–	–	–	Log P (physchem): 1.54
CC12CCC(=O)C=C1CCC1C3CCC(O)(C(=O)COC4OC(CO)C(O)C(O)C4O)C3(C)CC(O)C12F [Compound 7, 9 alpha-Fluoro-11 beta, 17 alpha-dihydroxy-3, 20-dioxopregna-4-en-21-yl beta-D-glucopyranoside]	42.0	1.4	7.7	0.14	33.0	0.43	12.3	0.08	Km [2, 9]: 4.4 µM; Vmax [2, 9]: 2.4 µM/min/g; hydrolysis by cecal contents, comparison in words [3]: hydrolyzed more slowly than the other glucoside prodrugs
CC1CC2C3CCC4=CC(=O)C=CC4(C)C3(F)C(O)CC2(C)C1(O)C(=O)COC1OC(CO)C(O)C(O)C1O [Compound 9, 9 alpha-Fluoro-11 beta, 17 alpha-dihydroxy-16 alpha-methyl-3, 20-dioxopregna-1,4-dien-21-yl beta-D-galactopyranoside]	322	6.5	2.0	0.004	29.3	0.41	11.7	0.004	Km [2, 10]: 13.3 µM; Vmax [2, 10]: 3.9 µM/min/g; hydrolysis by DSI contents, comparison in words ([5]; homogenates of DSI contents): more resistant to hydrolysis than the other prodrugs
CC12C=CC(=O)C=C1CCC1C2C(O)CC2(C)C1CCC2(O)C(=O)COC1OC(CO)C(O)C(O)C1O [Compound 10, 11 beta, 17 alpha-dihydroxy-3,20-dioxopregna-l,4-dien-21-yl beta-D-galactopyranoside]	665	13	12.1	0.19	122	1.72	49.3	0.23	Km [2, 11]: 20 µM; Vmax [2, 11]: 10.3 µM/min/g
CC12CCC(=O)C=C1CCC1C2C(O)CC2(C)C1CCC2(O)C(=O)COC1OC(CO)C(O)C(O)C1O [Compound 11, 11 beta, 17 alpha-Dihydroxy-3, 20-dioxopregna-4-en-21-yl beta-D-galactopyranoside]	592	11.9	12.5	0.02	110	1.6	42.5	0.02	Km [2, 12]: 16.7 µM; Vmax [2, 12]: 10.2 µM/min/g
CC12CCC(=O)C=C1CCC1C3CCC(O)(C(=O)COC4OC(CO)C(O)C(O)C4O)C3(C)CC(O)C12F [Compound 12, 9 alpha-Fluoro-11 beta, 17 alpha-dihydroxy-3, 20-dioxopregna-4-en-21-yl beta-D-galactopyranoside]	642	12.9	7.0	0.01	56.7	0.80	12.5	0.01	Km [2, 13]: 33.3 µM; Vmax [2, 13]: 20.6 µM/min/g
O=[N+]([O-])c1ccc(O[C@@H]2O[C@H](CO)[C@@H](O[C@@H]3O[C@H](CO)[C@@H](O)[C@H](O)[C@H]3O)[C@H](O)[C@H]2O)cc1 [p-NP-cel, p-nitrophenyl-beta-D-cellobioside, reference compound]	–	–	–	–	–	–	–	–	Sp. act. [3, 14]: 96.5 nmoles/min/g wet weight; Tot. act. [3, 14]: 2.6 µmol/min; Sp. act. [4, 15]: 34.2 nmoles/min/g wet weight; Tot. act. [4, 15]: 0.35 µmol/min; Sp. act. [5, 14]: 26.0 nmoles/min/g wet weight; Tot. act. [5, 14]: 0.25 µmol/min; Sp. act. [6, 14]: 7.2 nmoles/min/g wet weight; Tot. act. [6, 14]: 0.05 µmol/min
O=[N+]([O-])c1ccc(O[C@@H]2O[C@H](CO)[C@H](O)[C@H](O)[C@H]2O)cc1 [p-NP-gal, p-nitrophenyl-beta-D-galactoside, reference compound]	–	–	–	–	–	–	–	–	Km [2, 16]: 166 µM; Vmax [2, 16]: 1233 µM/min/g
O=[N+]([O-])c1ccc(O[C@@H]2O[C@H](CO)[C@@H](O)[C@H](O)[C@H]2O)cc1 [p-NP-glc, p-nitrophenyl-beta-D-glucoside, reference compound]	–	–	–	–	–	–	–	–	Km [2, 16]: 360 µM; Vmax [2, 16]: 697 µM/min/g
